Data on six compounds can be found in patent US6924415B2 (Board of Regents, The University of Texas System, priority 2001, dated 2005).

The test system of experiment [1] is neonatal rat cardiomyocytes. In words: Morphometric analysis of cardiomyocytes (anti-sarcomeric α-actinin staining). The format is cell-based. On the set-up: Area / Major axis / Minor axis / Major/Minor: dose or concentration left out as unconfirmed. Particulars: for Area / Major axis / Major/Minor / Minor axis: virus moi 100, PE or LIF (1000 units/ml) where indicated, mean ± SD.

Experiment [2] concerns skeletal α-actin. In words: RNA dot blot, fetal gene expression in cardiomyocytes: skeletal α-actin. In kind it is cell-based. Particulars: Rattus norvegicus, Cardiomyocyte; Adβ-gal-infected cells treated with LIF (1000 units/ml) or PE (50 μM) 24 hours; relative to uninfected untreated cells. How it is done:
FIGS. 4A-B. MEK5 signaling contributes to the regulation of cardiomyocyte fetal gene expression by PE and LIF. (FIG. 4A) Cardiomyocytes were either not infected (−) or infected with MEK5WT, MEK5KM or β-gal adenoviruses at an moi of 20 and serum-deprived. Thirty-six hours post-infection, cells were either not treated or treated with 50 μM PE (black bar) or 1000 units/ml LIF (white bar) for an additional 24 hours. RNA was prepared and used for dot blots with oligonucleotide probes specific for skeletal α-actin, ANF or BNP. Signal intensity was quantitated using a Phosphor Imager. The average fold induction±SD of three independent experiments is shown. “-fold” induction is relative to uninfected cells without PE or LIF treatment. (FIG. 4B) Cardiomyocytes were either not infected or infected with MEK5DD or β-gal adenoviruses at an moi of 20 and serum-deprived. Forty-eight hours post-infection, the cells were harvested and RNA was prepared. Transcript levels for α-skeletal actin, ANF or BNP were determined as described in FIG. 4A. […]
To determine whether elevated MEK5 could also transduce signals that regulate fetal gene expression, the inventors treated cardiomyocytes infected with AdMEK5WT, AdMEK5KM or Ad[…]-gal with LIF or PE and analyzed expression of atrial natriuretic factor (ANF), brain natriuretic peptide (BNP) and skeletal α-actin (FIG. 4A). […]

The test system of experiment [3] is ERK5. Briefly: ERK5 immunoprecipitation kinase assay (GST-MEF2C substrate) after treatment of cardiomyocytes. Particulars: at 60 min; 0.3M sorbitol or 200 μM H2O2; serum-deprived neonatal rat cardiomyocytes. In kind it is cell-based.
Experimental: Top, ERK5 was immunoprecipitated from 200 μg of cellular lysate with an antibody specific for the carboxyl-terminal 20 amino acids. Kinase assays were performed with immunoprecipitated ERK5 using GST-MEF2C substrate in the presence of [γ-^32P]-ATP. GST-MEF2C phosphorylation was detected by autoradiography after SDS-PAGE. Middle, immunoblotting was performed on immunoprecipitated material using rabbit anti-ERK5 antibody. Bottom, levels of ^32P-phosphorylated GST-MEF2C were quantitated with a Phosphor Imager.
Following incubation for 30 min at 30° C., samples were separated by SDS-PAGE and transferred to a polyvinylidene difluoride (PVDF) membrane. The level of ^32P-labeled GST-fusion protein on the membrane was analyzed using a Phosphor Imager (Molecular Dynamics). The membrane was then immunoblotted with anti-ERK5 rabbit polyclonal antibody (StressGen) at a final concentration of 150 ng/ml and proteins were visualized using a chemiluminescence system (Santa Cruz).
Eighteen hours after plating, cells were changed into serum-free media and either incubated for an additional forty-eight hours prior to treatment with hypertrophic agents or infected with adenovirus at a multiplicity of infection of 100.
Following treatment, cardiomyocytes were harvested and ERK5 immunoprecipitation (IP) kinase assays were performed with a GST-MEF2C substrate.
Experiment [4] relates to ERK5. Particulars: Kamakura et al., 1999; cited from earlier work.

Consider `CNC[C@H](O)c1cccc(O)c1` [PE, phenylephrine], for which, in experiment [1], the Area came to 5745 ± 1560 μm^2, the Major axis was found to be 110 ± 20 μm, the Major/Minor amounted to 1.71 ± 0.37 and the Minor axis is 66 ± 12 μm. This compound also returned a fold induction at 50 µM in experiment [2] of 4 to 5.

For “LIF: IL-6 family cytokine, leukemia inhibitory factor”, in experiment [1], the Area is 3586 ± 1090 μm^2, the Major axis was 144 ± 36 μm, the Major/Minor is on record as 5.06 and the Minor axis amounted to 33 ± 12 μm. In addition, in experiment [1] (α-actinin staining), the “cardiomyocyte elongation (morphology)” value was “induced dramatic elongation”.

For `OC[C@@H](O)[C@@H](O)[C@H](O)[C@@H](O)CO` [sorbitol], the “activation of ERK5 (phosphorylation of GST-MEF2C)” value in experiment [3] turned out to be 8 fold.

On to `N#CC(=C(/N)Sc1ccccc1N)/C(C#N)=C(\N)Sc1ccccc1N` [U0126], for which, in experiment [4], the “inhibition of activation of ERK5” value is listed as “inhibit activation of ERK5”.

For the compound `COc1cccc(-c2cc(=O)c3ccccc3o2)c1N` [PD098059], the “inhibition of activation of ERK5” value in experiment [4] is “inhibit activation of ERK5”.

Consider `OO` [H2O2], for which, in experiment [3], the “activation of ERK5 (phosphorylation of GST-MEF2C)” value came out at 5 fold.
